Values of other authors in US20030162237A1, “Methods of monitoring enzyme activity” (priority 2000, published 2003).
Where two headings read alike, the source gives them in different places.

Assays:
stem-loop IIB RNA = details: phosphorylated by PKC or HMK, versus unphosphorylated H6Rev

Row | Molecule | expression of malignancy suppressor genes (human tumor cell lines) | binds more tightly to stem-loop IIB RNA than unphosphorylated H6Rev (stem-loop IIB RNA) | binds more tightly to stem-loop IIB RNA than unphosphorylated H6Rev (stem-loop IIB RNA; listed as H6Rev)
1 | Nc1ncn([C@H]2C[C@H](O)[C@@H](CO)O2)c(=O)n1 [5-aza-2′-deoxycytidine] | reactivate the expression of many of the malignancy suppressor genes | – | –
2 | P-H6Rev: HIV type-1 Rev protein H6Rev (accession number P04325) phosphorylated by PKC or HMK | – | ligand 7-fold more tightly than H6Rev. | 7 fold
